From BindingDB's records for patent US11718589 (Case Western Reserve University, 2023) come the findings set out here.

SMILES strings stand for the structures.

Broadly, the IC50 is the point on the concentration scale where inhibition reaches its midpoint. A higher IC50 goes with weaker potency.

The target in this assay is T1, 15-hydroxyprostaglandin dehydrogenase [NAD(+)] (Homo sapiens, UniProt P15428).
T1 sequence (P15428 whole entry): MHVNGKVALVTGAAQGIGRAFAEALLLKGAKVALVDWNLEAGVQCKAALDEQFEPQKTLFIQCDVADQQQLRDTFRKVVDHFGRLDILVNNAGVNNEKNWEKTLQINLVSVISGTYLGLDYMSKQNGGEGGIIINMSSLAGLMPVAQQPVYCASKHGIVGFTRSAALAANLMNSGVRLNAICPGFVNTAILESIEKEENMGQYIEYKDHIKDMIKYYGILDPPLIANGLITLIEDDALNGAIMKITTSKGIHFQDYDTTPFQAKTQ
The assay can be described thus: In Vitro Assay.
As for `CCCC[S+]([O-])c1cc2nc(-c3ccc(OC)cc3)cc(C(F)(F)F)n2n1` (stereo unspecified) [US11718589, Compound 3a], the IC50 was found to be 35.5 nM.

With `CCCCS(=O)(=O)c1cc2nc(-c3ccc(OC)cc3)cc(C(F)(F)F)n2n1` [US11718589, Compound 4a], the IC50 was greater than 2500 nM.

`CCCC[S+]([O-])c1cc2nc(-c3ccc(OC)cc3)cc(-c3ccccc3)n2n1` (stereo unspecified) [US11718589, Compound 5a] gave an IC50 of 39 nM. Consider `CCCC[S+]([O-])c1cc2nc(-c3ccc(OC)cc3)cc(-c3ccc(F)cc3)n2n1` (stereo unspecified) [US11718589, Compound 6a], for which inhibition was half-maximal at 59 nM (IC50). The molecule `CCNC(=O)c1cc2nc(-c3ccc(OC)cc3)cc(C(F)(F)F)n2n1` [US11718589, Compound 7a] yielded an IC50 greater than 2500 nM. `COc1ccc(-c2cc(C(F)(F)F)n3nc(C(=O)NCCO)cc3n2)cc1` [US11718589, Compound 12a] returned an IC50 greater than 2500 nM.
